# Reference: article doi:10.1101/2023.04.22.537907v1 (biorxiv, 2023)
# Biological target: PcVHA-a (vacuolar H+-ATPase subunit a; Pc106526)
# Test: microscale thermophoresis with lysate of mCherry-fusion transformants
# Assay type: binding, Phytophthora capsici
# Details: 25 °C; 20% MST power; total protein lysate; mCherry-only control
smiles,measurement,value
O=C(NCc1ncc(C(F)(F)F)cc1Cl)c1c(Cl)cccc1Cl [fluopicolide],Kd,17.9 µM
